± gives the expanded uncertainty stated by the source.
Assay: xn = mol fraction of the nth substance listed
Conditions: Liquid

CN(CCO)CCO [N-methyldiethanolamine] + O
Conditions | mass density [kg/m3]
323.09 K, 3015 kPa, x1 = 0.1302 | 1027.4 ± 0.4
323.09 K, 3997 kPa, x1 = 0.0369 | 1002.4 ± 0.4
323.09 K, 4003 kPa, x1 = 0.1302 | 1027.8 ± 0.4
323.09 K, 4998 kPa, x1 = 0.0369 | 1002.7 ± 0.4
323.09 K, 4999 kPa, x1 = 0.1302 | 1028.1 ± 0.4
323.09 K, 5998 kPa, x1 = 0.1302 | 1028.5 ± 0.4
323.09 K, 6003 kPa, x1 = 0.0369 | 1003.1 ± 0.4
323.09 K, 6993 kPa, x1 = 0.0369 | 1003.5 ± 0.4
323.09 K, 6998 kPa, x1 = 0.1302 | 1028.9 ± 0.4
323.09 K, 7994 kPa, x1 = 0.0369 | 1004 ± 0.4
323.09 K, 7999 kPa, x1 = 0.1302 | 1029.3 ± 0.5
323.09 K, 8996 kPa, x1 = 0.0369 | 1004.4 ± 0.4
323.09 K, 8998 kPa, x1 = 0.1302 | 1029.7 ± 0.5
323.09 K, 9995 kPa, x1 = 0.1302 | 1030.1 ± 0.5
323.09 K, 9997 kPa, x1 = 0.0369 | 1004.8 ± 0.4
323.09 K, 10986 kPa, x1 = 0.0369 | 1005.2 ± 0.4
323.09 K, 10997 kPa, x1 = 0.1302 | 1030.4 ± 0.5
323.09 K, 11988 kPa, x1 = 0.0369 | 1005.6 ± 0.4
323.09 K, 11998 kPa, x1 = 0.1302 | 1030.8 ± 0.5
323.09 K, 12997 kPa, x1 = 0.0369 | 1006 ± 0.4
323.09 K, 13005 kPa, x1 = 0.1302 | 1031.2 ± 0.5
323.09 K, 13999 kPa, x1 = 0.0369 | 1006.4 ± 0.4
323.09 K, 14003 kPa, x1 = 0.1302 | 1031.6 ± 0.5
323.09 K, 14989 kPa, x1 = 0.0369 | 1006.8 ± 0.4
323.09 K, 14990 kPa, x1 = 0.1302 | 1032 ± 0.5
323.09 K, 15996 kPa, x1 = 0.1302 | 1032.3 ± 0.5
323.09 K, 16002 kPa, x1 = 0.0369 | 1007.1 ± 0.4
323.09 K, 16988 kPa, x1 = 0.0369 | 1007.6 ± 0.4
323.09 K, 16999 kPa, x1 = 0.1302 | 1032.7 ± 0.5
323.09 K, 17990 kPa, x1 = 0.0369 | 1007.9 ± 0.4
323.09 K, 17996 kPa, x1 = 0.1302 | 1033.1 ± 0.5
323.09 K, 18988 kPa, x1 = 0.1302 | 1033.4 ± 0.5
323.09 K, 18996 kPa, x1 = 0.0369 | 1008.3 ± 0.4
323.09 K, 19995 kPa, x1 = 0.0369 | 1008.7 ± 0.4
323.09 K, 20004 kPa, x1 = 0.1302 | 1033.8 ± 0.5
323.1 K, 1009 kPa, x1 = 0.0893 | 1019.6 ± 0.4
323.1 K, 2006 kPa, x1 = 0.0893 | 1020 ± 0.4
323.1 K, 3012 kPa, x1 = 0.0893 | 1020.4 ± 0.4
323.1 K, 4011 kPa, x1 = 0.0893 | 1020.8 ± 0.4
323.1 K, 5002 kPa, x1 = 0.0893 | 1021.2 ± 0.4
323.1 K, 5996 kPa, x1 = 0.0893 | 1021.6 ± 0.4
323.1 K, 7006 kPa, x1 = 0.0893 | 1022 ± 0.4
323.1 K, 8004 kPa, x1 = 0.0893 | 1022.3 ± 0.4
323.1 K, 8991 kPa, x1 = 0.0893 | 1022.7 ± 0.4
323.1 K, 9999 kPa, x1 = 0.0893 | 1023.1 ± 0.4
323.1 K, 10993 kPa, x1 = 0.0893 | 1023.5 ± 0.4
323.1 K, 11992 kPa, x1 = 0.0893 | 1023.8 ± 0.4
323.1 K, 13001 kPa, x1 = 0.0893 | 1024.2 ± 0.5
323.1 K, 13990 kPa, x1 = 0.0893 | 1024.6 ± 0.5
323.1 K, 14980 kPa, x1 = 0.0893 | 1025 ± 0.5
323.1 K, 16002 kPa, x1 = 0.0893 | 1025.3 ± 0.5
323.1 K, 16990 kPa, x1 = 0.0893 | 1025.7 ± 0.5
323.1 K, 17994 kPa, x1 = 0.0893 | 1026.1 ± 0.5
323.1 K, 18999 kPa, x1 = 0.0893 | 1026.5 ± 0.5
323.1 K, 20002 kPa, x1 = 0.0893 | 1026.8 ± 0.5
333.03 K, 1009 kPa, x1 = 0.1302 | 1019.4 ± 0.4
333.03 K, 1015 kPa, x1 = 0.0607 | 1006.4 ± 0.4
333.03 K, 1998 kPa, x1 = 0.0607 | 1006.8 ± 0.4
333.03 K, 2002 kPa, x1 = 0.1302 | 1019.8 ± 0.4
333.03 K, 2997 kPa, x1 = 0.1302 | 1020.2 ± 0.4
333.03 K, 3013 kPa, x1 = 0.0607 | 1007.2 ± 0.4
333.03 K, 3993 kPa, x1 = 0.1302 | 1020.6 ± 0.4
333.03 K, 4037 kPa, x1 = 0.0607 | 1007.6 ± 0.4
333.03 K, 4997 kPa, x1 = 0.1302 | 1021 ± 0.4
333.03 K, 5116 kPa, x1 = 0.0607 | 1008.1 ± 0.4
333.03 K, 6002 kPa, x1 = 0.1302 | 1021.4 ± 0.4
333.03 K, 6004 kPa, x1 = 0.0607 | 1008.4 ± 0.4
333.03 K, 6992 kPa, x1 = 0.0607 | 1008.8 ± 0.4
333.03 K, 6992 kPa, x1 = 0.1302 | 1021.8 ± 0.4
333.03 K, 8003 kPa, x1 = 0.0607 | 1009.1 ± 0.4
333.03 K, 8013 kPa, x1 = 0.1302 | 1022.2 ± 0.4
333.03 K, 8975 kPa, x1 = 0.0607 | 1009.6 ± 0.4
333.03 K, 9016 kPa, x1 = 0.1302 | 1022.6 ± 0.4
333.03 K, 9983 kPa, x1 = 0.0607 | 1009.9 ± 0.4
333.03 K, 9993 kPa, x1 = 0.1302 | 1023 ± 0.4
333.03 K, 10989 kPa, x1 = 0.1302 | 1023.4 ± 0.4
333.03 K, 11029 kPa, x1 = 0.0607 | 1010.4 ± 0.4
333.03 K, 12007 kPa, x1 = 0.1302 | 1023.8 ± 0.5
333.03 K, 12015 kPa, x1 = 0.0607 | 1010.7 ± 0.4
333.03 K, 13003 kPa, x1 = 0.1302 | 1024.1 ± 0.5
333.03 K, 13028 kPa, x1 = 0.0607 | 1011.1 ± 0.4
333.03 K, 13995 kPa, x1 = 0.1302 | 1024.5 ± 0.5
333.03 K, 14020 kPa, x1 = 0.0607 | 1011.5 ± 0.4
333.03 K, 15011 kPa, x1 = 0.1302 | 1024.9 ± 0.5
333.03 K, 15022 kPa, x1 = 0.0607 | 1011.9 ± 0.4
333.03 K, 15996 kPa, x1 = 0.1302 | 1025.3 ± 0.5
333.03 K, 16006 kPa, x1 = 0.0607 | 1012.3 ± 0.4
333.03 K, 16996 kPa, x1 = 0.0607 | 1012.7 ± 0.4
333.03 K, 17011 kPa, x1 = 0.1302 | 1025.7 ± 0.5
333.03 K, 17985 kPa, x1 = 0.1302 | 1026.1 ± 0.5
333.03 K, 18013 kPa, x1 = 0.0607 | 1013.1 ± 0.4
333.03 K, 18991 kPa, x1 = 0.1302 | 1026.4 ± 0.5
333.03 K, 19018 kPa, x1 = 0.0607 | 1013.4 ± 0.4
333.03 K, 19965 kPa, x1 = 0.0607 | 1013.8 ± 0.4
333.03 K, 19993 kPa, x1 = 0.1302 | 1026.8 ± 0.5
333.04 K, 1012 kPa, x1 = 0.0369 | 995.9 ± 0.4
333.04 K, 1999 kPa, x1 = 0.0369 | 996.3 ± 0.4
333.04 K, 2995 kPa, x1 = 0.0369 | 996.7 ± 0.4
333.04 K, 4008 kPa, x1 = 0.0369 | 997.2 ± 0.4
333.04 K, 4992 kPa, x1 = 0.0369 | 997.6 ± 0.4
333.04 K, 5983 kPa, x1 = 0.0369 | 998 ± 0.4
333.04 K, 6994 kPa, x1 = 0.0369 | 998.4 ± 0.4
333.04 K, 7997 kPa, x1 = 0.0369 | 998.8 ± 0.4
333.04 K, 8994 kPa, x1 = 0.0369 | 999.2 ± 0.4
333.04 K, 9994 kPa, x1 = 0.0369 | 999.6 ± 0.4
